Tests used:
Format in all cases: physicochemical
[1] = Particle size by image analysis (Galai CIS-100) of salmeterol xinafoate suspension in HFA 134a
Protocol: (§1) Salmeterol xinafoate formulations in HFA 134a, of strength 25 μg per actuation, and 10% w/w (relative to drug) of the relevant surfactant compound of formula (I) were prepared in crimped glass bottles using salmeterol xinafoate (8.7 mg), HFA 134a (18 g) and the relevant compound (0.87 mg). The control was prepared without the addition of a surfactant.
In this measurement, particle size is represented as the equivalent diameter of a circle of equal area to the object. The mean is the average of 4 determinations. The particle size measurement was obtained by transferring the suspensions to a pressurised cell, and video-imaging the sample under shear via a microscope objective.
The equivalent diameter is defined as the diameter of a circle of equal area to the object.
The mean equivalent diameter can be weighted by number, length or volume. e.g. For three particles with equivalent diameters of x, y and z: […]

[2] = Content uniformity by dose through use testing; conditions: Initial timepoint, 10% w/w surfactant
Protocol: as §1
The content uniformity of the formulation, the preparation of which is described above, was assessed by dose through use testing. Testing was performed on 10 cans/inhalers at “beginning of use” (BoU) and “end of use” (EoU). After each inhaler had been primed (4 shots fired to waste), actuations 1 and 2 (BoU) were collected. The next 116 actuations of each inhaler were then fired to waste using an automated method and actuations 119 and 120 (EoU) collected.
Assessment of content uniformity was performed at the initial timepoint (following sample preparation). Mean results from the two BoU actuations (1+2 for 10 inhalers) and the two EoU actuations (119+120 for same 10 inhalers) together with the percentage relative standard deviation (% RSD) for the 10 cans are shown in Table 3. […] The presence of the surfactant therefore improves the content uniformity of the inhaler. Furthermore the formulations containing the compound of Example 1, advantageously, show a reduction in the relative standard deviation at the BoU and EoU.

[3] = Andersen Cascade Impaction of salmeterol xinafoate HFA 134a formulation; conditions: Initial timepoint, beginning of use, mean of 3 cans/inhalers, 10% w/w surfactant
Protocol: as §1
The formulation, the preparation of which is described above, was profiled using an Andersen Cascade Impactor. Ten actuations at “beginning of use” (BoU) were collected in the impactor from an inhaler after 4 priming actuations were fired to waste. The drug delivered was then quantified by HPLC analysis. Testing was performed at the initial timepoint (following sample preparation). The results, in Table 2 are shown as the mean analysis of 3 cans/inhalers.
The profile obtained was used to determine total dose emitted dose (ex-valve and ex-actuator) and the fine particle mass (FPM, defined as the sum of stages 3–5). The percentage fine particle mass expresses the FPM as a percentage of the total dose emitted (ex-valve). The FPM is used as a measure of the proportion of the drug likely to reach the therapeutic target in the lungs.

Compound: O=C(CCC(F)(F)C(F)(F)F)OCC(OC(=O)CCC(F)(F)C(F)(F)F)C(=O)O (centres unmarked) [Example 1, 2,3-Bis[(4,4,5,5,5-pentafluoronentanoyl)oxy]propanoic acid]
- Mean Length weighted diameter ([1]; salmeterol xinafoate 25 μg per actuation in HFA 134a with 10% w/w (relative to drug) surfactant, mean of 4 determinations): 21.5 μm
- suspension stabilising properties (flocculation of drug particles) ([1]; salmeterol xinafoate formulation in HFA 134a with 10% w/w surfactant): has suspension stabilising properties
- BoU dose ([2]; actuations 1+2, mean of 10 inhalers): 21.2 µg
- EoU dose ([2]; actuations 119+120, mean of 10 inhalers): 25.1 µg
- Total Dose Emitted (Ex-Actuator) ([3]; 10 actuations): 21.1 µg
- Total Dose Emitted (Ex-Valve) ([3]; 10 actuations): 23.9 µg
- % FPM (FPM as percentage of total dose emitted ex-valve) [3]: 50.3%
- FPM (fine particle mass, sum of stages 3–5) [3]: 12.0 µg
